Laboratory results taken from patent publication US20220305092A1, “MEDICAMENT AND FOOD FOR PREVENTING OR TREATING NOVEL CORONAVIRUS PNEUMONIA COVID-19 AND USE THEREOF” (GUANGZHOU CENTURY CLINICAL RESEARCH CO., LTD, priority 2020, published 2022).

Assays:
COVID-19 virus = assay: Inhibition of cytopathic effect caused by COVID-19 virus in VeroE6 cells; assay type: cell-based; details: for inhibition of the cytopathic effect caused by the COVID-19 virus (in words): Example 2, VeroE6 cells
[1] = tested on: guinea pigs which had inhaled smoke; assay: Airway resistance and lung function of guinea pigs which had inhaled smoke; assay type: in vivo, guinea pig
Method: The smoke-induced model was a classic animal model for chronic obstructive pulmonary disease. After inhaling smoke for a long period of time, animals could suffer from increased mucus secretion, airway obstruction, lung function decline, etc. The effect of the lysozyme on airway obstruction was evaluated by means of the model establishment method in the present experiment.
Lysozyme, monoammonium glycyrrhizinate, and monopotassium glycyrrhizinate.
Male Hartley guinea pigs, weighing 400 to 500 g, were randomly divided into a blank group, a model group, a lysozyme oral administration group (200 mg/kg), a lysozyme inhalation group (2 mg/kg), lysozyme+monoammonium glycyrrhizinate inhalation group (2 mg/kg+0.1 mg/kg), lysozyme+monopotassium glycyrrhizinate oral administration group I (200 mg/kg+20 mg/kg), and lysozyme+monopotassium glycyrrhizinate oral administration group II (200 mg/kg+40 mg/kg), with eight animals in each group.
The animals in each group except the blank group were exposed to cigarette smoke by using a smoke exposure system for oro-nasal inhalation only, such that the animals inhaled smoke of five cigarettes within 40 minutes per day, for 5 exposure days per week, for 12 consecutive weeks.
The lysozyme and monoammonium glycyrrhizinate used for inhalation administration were respectively crushed into powders with a particle size of less than 10 μm. The lysozyme and monopotassium glycyrrhizinate used for oral administration were respectively dissolved in normal saline.
The animals in each group except the blank group and the model group were administered once a day for 4 consecutive weeks from the 8th week after the model establishment began. The inhalation administration groups were administered by means of an oro-nasal inhalation exposure system, while the oral administration groups were administered intragastrically. Animals in the blank group and the model group were administered intragastrically with normal saline per day.
Airway resistance measurement and 100 ms (millisecond) expiratory volume measurement were performed after administration.
The animals were placed in a double chamber plethysmography system, and after the animals were left in a tranquil state for 10 minutes, the specific airway resistance (sRaw) was measured. The animals were anesthetized by intramuscular injection of ketamine, then a catheter was then inserted into the trachea, and the forced expiratory volume in 100 ms (FEV 100) of the animals was measured through a lung function testing system.

[2] = tested on: lipopolysaccharide-induced intestinal barrier dysfunction in mice; assay: Intestinal permeability (serum FITC-glucan) in lipopolysaccharide-induced intestinal barrier dysfunction in mice; assay type: in vivo, mouse; details: 100 mg/kg intragastrically, 30 days, model 35.06, blank 9.40
Excerpt: Lipopolysaccharides could cause impaired intestinal function in animals. The protective effect of lysozyme and lysozyme combinations against lipopolysaccharide-induced intestinal barrier dysfunction in mice were studied in the present experiment.
Test drugs: lysozyme, monoammonium glycyrrhizinate, and dipotassium glycyrrhizinate.
Test animals: clean-grade male C57BL/6 mice, weighing 20 to 25 g.
Animal grouping and administration: The animals were randomly divided into a blank group, a model group, a lysozyme group (100 mg/kg), lysozyme+monoammonium glycyrrhizinate group A (100 mg/kg+2 mg/kg), lysozyme+monoammonium glycyrrhizinate group B (100 mg/kg+10 mg/kg), lysozyme+monoammonium glycyrrhizinate group C (100 mg/kg+20 mg/kg), and a lysozyme+dipotassium glycyrrhizinate group (100 mg/kg+2 mg/kg), with eight animals in each group. […]
Determination of intestinal permeability: The animals of each group were administered intragastrically with 600 mg/kg of FITC-glucan (dissolved in a phosphate buffer), and after 4 hours, blood was taken from eyeballs. The content of the FITC-glucan in the serum was measured by means of fluorescence spectrometry (with an excitation wavelength of 480 nm and an emission wavelength of 520 nm), and the results were shown in Table 5.

occludin protein = assay: Occludin mRNA expression in jejunum tissue of lipopolysaccharide-treated mice (quantitative PCR); assay type: in vivo, mouse; details: 100 mg/kg, model 0.54, blank 1.04
Method: (§1) Animal grouping and administration: The animals were randomly divided into a blank group, a model group, a lysozyme group (100 mg/kg), lysozyme+monoammonium glycyrrhizinate group A (100 mg/kg+2 mg/kg), lysozyme+monoammonium glycyrrhizinate group B (100 mg/kg+10 mg/kg), lysozyme+monoammonium glycyrrhizinate group C (100 mg/kg+20 mg/kg), and a lysozyme+dipotassium glycyrrhizinate group (100 mg/kg+2 mg/kg), with eight animals in each group. Each drug group was administered intragastrically by each dose of drugs every day, while the blank group and the model group were administered with normal saline. The administration was performed for 30 consecutive days.
(§2) Model establishment: After administration, the animals of each group except the blank group were intraperitoneally injected with 15 mg/kg of lipopolysaccharides, and the blank group was injected with normal saline. The animals were fasted for 12 hours after injection.
(§3) Determination of expression of tight junction proteins in intestinal tissue: After the animals were sacrificed, jejunum tissue samples were taken for RNA extraction, the relative expression levels of occludin protein and Claudin-1 protein in the tissues were detected by quantitative PCR and the results were shown in Table 6.

Claudin-1 protein = assay: Claudin-1 mRNA expression in jejunum tissue of lipopolysaccharide-treated mice (quantitative PCR); assay type: in vivo, mouse; details: 100 mg/kg, model 0.73, blank 1.07
Method: as §1, §2, §3

[3] = inhalation, 2 mg/kg once a day for 4 weeks

## CC1(C)[C@@H](O[C@H]2O[C@H](C(=O)O)[C@@H](O)[C@H](O)[C@H]2O[C@@H]2O[C@H](C(=O)O)[C@@H](O)[C@H](O)[C@H]2O)CC[C@]2(C)[C@H]3C(=O)C=C4[C@@H]5C[C@@](C)(C(=O)O)CC[C@]5(C)CC[C@@]4(C)[C@]3(C)CC[C@@H]12.N [Monoammonium glycyrrhizinate, monoammonium glycyrrhizinate]
COVID-19 virus; 1000 μg/ml, VeroE6 cells, 100 TCID50, 4 days
  Inhibition rate (%): 23.35 ± 5.43%
COVID-19 virus; 2000 μg/ml, VeroE6 cells, 100 TCID50, 4 days
  Inhibition rate (%): 29.42 ± 7.16%
COVID-19 virus
  inhibition of the cytopathic effect caused by the COVID-19 virus (in words): relatively weak inhibition effect

## lysozyme
COVID-19 virus; 350 μg/ml, Example 3
  Inhibition rate (%): 6.67 ± 1.56%
COVID-19 virus
  inhibition of the cytopathic effect caused by the COVID-19 virus (in words): significantly inhibited
[1]; [3]
  100 ms expiratory volume: 7.68 ± 1.36 mL
  Airway resistance (cmH2O · s): 3.10 ± 0.14 cmH2O · s
[1]; oral administration, 200 mg/kg once a day for 4 weeks, model 4.18, blank 11.86
  100 ms expiratory volume: 5.79 ± 2.03 mL
[1]; oral administration, 200 mg/kg once a day for 4 weeks, model 4.72, blank 1.43
  Airway resistance (cmH2O · s): 3.79 ± 0.30 cmH2O · s
[2]
  Content of FITC-glucan: 27.53 ± 3.21 µg/mL
Occludin protein
  Relative expression quantity of Occludin mRNA: 0.69 ± 0.07
Claudin-1 protein
  Relative expression quantity of Claudin-1 mRNA: 0.79 ± 0.16
